# Reference: US20230045112A1, “DISULFIRAM AND OTHER REDOX-RELATED COMPOSITIONS FOR BRAIN TUMORS” (Texas Tech University System, priority 2014, published 2023)
# What was measured:
# [1] = molecular target: T1, MGMT (Homo sapiens, UniProt P16455); test: Effect of proteasome inhibitor PS-341 on degradation of DSF-modified MGMT in UW228 cells; assay type: cell-based; design: endogenous in cells; host or cells: UW228, T98G
# T1 sequence (P16455 1-207): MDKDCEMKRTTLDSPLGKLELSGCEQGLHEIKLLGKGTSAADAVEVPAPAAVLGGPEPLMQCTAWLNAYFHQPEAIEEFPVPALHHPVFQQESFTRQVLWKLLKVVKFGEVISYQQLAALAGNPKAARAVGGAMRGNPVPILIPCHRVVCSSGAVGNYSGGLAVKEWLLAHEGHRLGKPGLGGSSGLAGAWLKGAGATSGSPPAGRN
# From the text: The samples were immunoblotted and probed with MGMT antibodies (right panel). The densitometric quantitation of protein bands on the western blots is shown as a line graph on the left. […] Cell lysates were western blotted for the MGMT protein. […] Kinetics of DNA interstrand crosslinks formed in UW228 cells after treatment with […] BCNU or […] melphalan is shown. […] They were then exposed to BCNU or melphalan. At times specified, the cells were harvested, DNA isolated and the extent of interstrand crosslinking of DNA was determined using the ethidium bromide fluorescence assay. Values are mean+S.D. The results were significant at P<0.05. […] The cells were trypsinized at times indicated and analyzed by flow cytometry.
# Since the MGMT inactivated by BG is degraded through ub-proteolysis, it was of interest to investigate the mode of elimination of DSF-modified MGMT protein. Therefore, first, we compared the in vitro degradation of DSF-treated and untreated rMGMT protein in rabbit reticulocyte lysates (RL), which are known to promote the proteasomal degradation. The control and DSF-modified MGMT proteins were incubated with RL in the presence of Mg++, ATP and ubiquitin at 37° C. The reaction mixtures were blotted and probed with MGMT antibodies. […] To show the involvement of the ub-proteolysis in cells a clinically used proteasome inhibitor. […]
# [2] = test system: UW228 cells; test: Cell cycle analysis (flow cytometry) and apoptosis markers; assay type: cell-based, human; conditions: 100 μM BCNU alone, 24 hours
# Method: This was followed by 100 μM BCNU. […] After the treatments, cells were allowed to grow for 24 and 48 hours. At each of these time points cells were harvested and fixed in 70% ethanol. The cells were then washed with PBS and re-suspended in the presence of RNase (1 μg/ml) and propidium iodide (PI, 50 μg/ml) for 30 minutes. Cell cycle histograms were generated using a BD Accuri C6 flow cytometer.
# [3] = molecular target: T1, MGMT; test: MGMT activity and protein in MGMT-proficient human cancer cell lines (HT29, T47D, HCT116); assay type: cell-based; design: endogenous in cells; host or cells: HT29, T47D, HCT116
# [4] = test system: cell lines; test: Cytotoxicity of NO-aspirin for cell lines; assay type: cell-based
# [5] = test system: NQO1-proficient A549 tumors; test: NIR imaging of NQO1-proficient tumors in live mice; assay type: in vivo, nude mice; conditions: one mg/kg intravenously
# From the text: (§1) Engineering of NQO1 turn-on near-infrared (NIR) fluorophores and theranostic drugs thereof for pediatric brain cancer therapy and multimodality imaging. There is an imperative need for the development of cancer-specific imaging and therapeutic multifunctional or theranostic agents that can allow both imaging and drug delivery. Imaging in the near-infrared (NIR) range of 650-900 nm has been widely used in clinical procedures, because of deep tissue penetration, low autofluorescence, and reduced photon scattering. The inventors developed enzyme-activatable, cell-permeable, non-toxic, and biocompatible ‘turn-on’ NIR fluorescent probes (NIR-ASM, NQ-DCP) that provide accurate detection and visualization of endogenous NQO1 activity both in vitro and an in vivo preclinical model of lung and brain cancers. These fluorophores remain non-fluorescent until cleavage by NQO1 catalysis. In this study, subcutaneous tumors of A549 lung cancer (NQO1-positive) and MDAMB-231 breast cancer (NQO1 negative) were developed in the same animal on opposite flanks.
# (§2) The animals were imaged in a IVIS imager at 500-640 nm.
# [6] = test system: NQO1-deficient MDAMB-231 tumors; test: NIR imaging of NQO1-deficient tumors in live mice; assay type: in vivo, nude mice; conditions: one mg/kg intravenously
# From the text: as §1, §2
# [7] = test system: MGMT inactivated cells and xenografts; test: Antimetabolite cytotoxicity in MGMT inactivated cells and xenografts; assay type: cell-based
# From the text: MGMT performs stoichiometric catalysis to remove mutagenic alkyl groups and dies in the process. […] Inhibition of MGMT by siRNA or 06-benzylguanine led to an S-phase block, perturbed DNA synthesis, and re-replication of the genome.
# [8] = test system: TET1, MGMT; test: Effect of DMG on TET1 and MGMT activities; assay type: cell-based; conditions: GBM cell lines
# From the text: (§3) Synthesis of 2,4-Dimethylene glutaric acid (DMG), an α-ketoglutaric acid (α-KG) mimic for induction of epigenetic modifications: D-2 hydroxyglutarate (D-2HG) effectively replaces the normal metabolite, α-KG in 70% of low-grade pediatric gliomas with IDH mutations. α-KG is a substrate for TET1, TET2 DNA demethylases, and histone demethylases that maintain normal epigenetic homeostasis. D2-HG directly contributes to the CpG-island methylator phenotype (G-CIMP) and MGMT promoter methylation by competing with α-KG and inhibiting the demethylases. As an innovative strategy of understanding the glioma pathology and turning the tide against it, the inventors prepared DMG, a powerful α-KG derivative to replace the natural metabolite in epigenetic demethylase reactions; induction of such therapeutic methylation in non-IDH mutant GBMs was postulated to regress the tumors. […] DMG efficacy in xenografts and MGMT methylation therein are being tested.
# [9] = test system: GBM cell lines; test: Potentiation of TMZ in DMG-treated cells; assay type: cell-based
# From the text: as §3
# [10] = molecular target: T2, Cys145 of MGMT (Homo sapiens, UniProt P16455); test: BG-PEG-biotin probe binding to MGMT; conditions: UW228 cell extracts, 20 minutes
# T2 construct: hexa-histidine; made in house; host or cells: E. coli
# T2 sequence (P16455 1-207): T1 sequence (P16455 1-207)
# Method: Drug treatments and exposure times are shown in labels. […] Cells were trypsinized at times shown. Levels of MGMT activity and protein were determined in cell extracts. […] BG-PEG-biotin (5 μM) was then added and incubations continued for 15 minutes. The samples were electrophoresed, blotted and probed with Streptavidin-HRP to detect the protein-bound biotin (upper panel). […] Streptavidin-HRP was used to probe the resulting blot (upper panel).
# MGMT protein and activity levels were analyzed during the depletion and repletion (FIG. 3B). […] MGMT protein levels as determined by western analyses during the depletion/repletion cycle were consistent with and fully reflected the DNA repair activity profiles (FIG. 3B, left panel).
# [11] = molecular target: T3, NQO1 (Homo sapiens, UniProt P15559); test: NQO1 activity inhibition; assay type: biochemical
# From the text: (§4) A tumor-targeted NIR small-molecule dye called NQ-THR, was made and specifically accumulated in cancer cells for tumor NIR imaging and simultaneously trigger tumoricidal oxidative stress by acting as an NQO1-bioactivatable substrate. This […] fluorophore provides sufficient specificity and imaging guidance to promote tumor-specific cell death, which can be used for the cancer treatment as well. NQ-IND, the precursor of NQ-THR is an NQO1 activated prodrug itself, which undergoes redox-cycling to produce ROS in brain tumor cells. The functional groups on NQ-IND are amenable to designing NQO1-activated imaging and therapeutic compounds. ES936 (FIG. 20A) is a highly specific, potent, mechanism-based NQO1 inhibitor (55). Inspired by the structure of ES936, the inventors prepared a compound NQ-IND (FIG. 20B) by removing the inhibitory nitroaryl group. NQ-IND was tested for its activity against NQO1 inhibition and cell viability. […]. On the other hand, NQ-IND attached with the NIR fluorescent dyes can be used to generate a theranostic fluorescent probe NQ-THR with both imaging and therapeutic capabilities.
# [12] = test system: normal cells; test: Cell viability, normal cell lines (NQ-IND); assay type: cell-based
# From the text: as §4
# [13] = test system: cancer cell lines; test: Cell viability, cancer cell lines (NQ-IND); assay type: cell-based
# From the text: as §4
# [14] = test system: ROS; test: Intracellular ROS by NQ-IND (DCF-DA fluorescence); assay type: cell-based
# From the text: as §4
# [15] = test system: DAOY cells; test: Potentiation of TMZ cytotoxicity by GNQ; assay type: cell-based
# From the text: (§5) To further validate the MGMT deficiency, tumor cells exposed to GNQ can be treated with BCNU and the interstrand DNA crosslinking induced by BCNU, which can be quantitated by ethidium bromide fluorescence assay. Thus, it is possible to take advantage of these altered DNA repair pathways to combine GNQ with TMZ and PARP inhibitors and perform antitumor efficacy studies in orthotopic xenografts of pediatric brain cancers.
# (§6) FIG. 21A to 21D show the inhibition of MGMT activity (FIG. 21A) and its degradation (FIG. 21B) induced by GNQ in DAOY cells. […] (FIG. 21D) GNQ potentiates the cytotoxicity of TMZ.
# [16] = Pharmacokinetic analysis of GNQ after IV injections, BBB permeability; assay type: in vivo; conditions: mouse, brain, normal mice, read-out: accumulation in the brain, % of plasma levels
# Method: (§7) (FIG. 17A). The generation of ROS by GNQ was assessed by using fluorescent probes DCFDA and DHE (FIG. 17C). GNQ acts as NQO1 substrate in vitro. (FIG. 17B) Reduction pathways and subsequent reactions of GNQ. (FIG. 17C) Intracellular ROS levels were measured using DCFDA and DHE. (FIG. 17D) Anti-oxidants reversed the GNQ induced apoptosis. Antitumor efficacy of GNQ against intracranial DAOY medulloblastoma: The BBB permeability of GNQ was examined by pharmacokinetic analysis after IV injections in normal mice. […] Intracranial DAOY tumors were set up in nude mice and the tumor growth was assessed by quantitative bioluminescence. […] FIG. 18A, 18B show complete suppression of intracranial DAOY medulloblastoma growth by GNQ. GNQ was given IP at 25 mg/kg/d, 5 d/wk for about 4 weeks. […] (FIG. 18D) Ex-vivo bioluminescence from the isolated brains (FIG. 18E) Accumulation of GNQ in the brain when compared to plasma. (FIG. 18F) H&E staining of mouse brain sections showing the elimination of […] by GNQ. (FIG. 18G) Mean tumor volume radiance in the GNQ-treated group was compared with that in the control. Different substitutions (halogens, aryl, alkyl, and alkoxy groups) can be made to GNQ to append alkyl side chains to impart hydrophobicity to prepare BBB penetrating analogs.
# [17] = test system: Reactive oxygen species (ROS); test: Intracellular ROS by GNQ (DCFDA and DHE); assay type: cell-based
# Method: as §7
# [18] = molecular target: T3, NQO1; test: NQO1 substrate assay (NADH utilization); assay type: biochemical
# Method: as §7
# [19] = molecular target: T1, MGMT; test: MGMT inhibition by GNQ in DAOY cells; assay type: cell-based; design: endogenous in cells; host or cells: DAOY
# From the text: as §5, §6
# [20] = test system: brain tumor cells; test: Cytotoxicity of GNQ against brain tumor cells, NQO1 dependence; assay type: cell-based; conditions: coincubation with ES936 or dicumarol
# From the text: (§8) (FIG. 15B) Cytotoxicity of GNQ against normal cells astrocytes and primary neurons. (FIG. 15C) Cytotoxicity against NQO1 null cell line MDA-MB-231. (FIG. 15D) Cytotoxicity values against normal and cancer cells in micromoles. […] Normal astrocytes and NQO1-null cells were not sensitive to GNQ.
# [21] = test system: Normal astrocytes and NQO1-null cells; test: Cytotoxicity of GNQ against normal and NQO1-null cells; assay type: cell-based
# From the text: as §8
# [22] = test system: intracranial DAOY medulloblastoma; test: Intracranial DAOY medulloblastoma in nude mice treated with GNQ, bioluminescence; assay type: in vivo; conditions: IP 25 mg/kg/d, 5 d/wk for about 4 weeks
# Method: Intracranial glioblastoma xenograft development in nude mice: GBM cells stably expressing luciferase and GFP are suspended at 2×10^5 cells/5 μl sterile PBS injected into mouse brains. For developing […], mice are anesthetized and placed on a stereotactic apparatus. For developing breast cancer brain metastases xenografts, brain-seeking breast cancer cells are injected into the left ventricle of the heart of each mouse under anesthesia. Three weeks later the mice are imaged for intracranial Firefly luciferase activity. Mice with intracranial bioluminescence are randomly divided into different groups for drug treatments. Imaging is performed 10 minutes after i.p. injection of D-luciferin (2 mg per animal) with mice lying in the prone position. Besides the bioluminescence studies, the survival of the human glioblastoma cell grafted mice after drug administrations are closely followed to generate the Kaplan-Meir curves.
# (FIG. 17A). The generation of ROS by GNQ was assessed by using fluorescent probes DCFDA and DHE (FIG. 17C). GNQ acts as NQO1 substrate in vitro. (FIG. 17B) Reduction pathways and subsequent reactions of GNQ. (FIG. 17C) Intracellular ROS levels were measured using DCFDA and DHE. (FIG. 17D) Anti-oxidants reversed the GNQ induced apoptosis. […] Intracranial DAOY tumors were set up in nude mice and the tumor growth was assessed by quantitative bioluminescence. […]
# T3 sequence (P15559 whole entry): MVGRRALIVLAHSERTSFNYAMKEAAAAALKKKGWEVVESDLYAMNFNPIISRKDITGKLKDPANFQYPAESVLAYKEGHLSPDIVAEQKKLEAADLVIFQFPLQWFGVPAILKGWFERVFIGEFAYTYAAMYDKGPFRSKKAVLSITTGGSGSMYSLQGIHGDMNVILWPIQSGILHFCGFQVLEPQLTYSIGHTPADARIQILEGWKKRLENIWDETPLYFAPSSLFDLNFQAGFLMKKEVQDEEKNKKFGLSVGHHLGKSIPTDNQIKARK
smiles,measurement,setting,value
"CC(C)C[C@H](NC(=O)[C@H](Cc1ccccc1)NC(=O)c1cnccn1)B(O)O [PS341, bortezomib]",decrease of MGMT degradation,[1]; 10 μM PS341 co-incubation with 50 μM DSF for 6 hours,20%
same,reduction in the loss of MGMT protein,[1]; pretreated 6 hours with 10 μM PS341 followed by 50 μM DSF for 12 hours,> 50%
"O=NN(CCCl)C(=O)NCCCl [BCNU, 1,3-bis-2-chloroethylnitrosourea]","G2/M blockade, % of cells",[2],33 % of cells
"CC(=O)Oc1ccccc1C(=O)Oc1cccc(CO[N+](=O)[O-])c1 [NCX-4016, 2-(acetyloxy) benzoic acid 3-[(nitrooxy)methyl]phenyl ester]",MGMT protein degraded,[3]; 5 μM for 2 hours,80-90%
same,inhibition of MGMT activity,"[3]; HT29, T47D, HCT116, 5-10 μM, within 1 hour of exposure",90%
same,MGMT protein regenerated,"[3]; HT29 cells, 24 hours post-incubation in drug-free medium",More than 60%
same,IC50,[4],> 500 µM
CC1=C(C)C(=O)C(C(C)(C)CC(=O)Nc2ccc(/C=C/C3=CC(=C(C#N)C#N)CC(C)(C)C3)cc2)=C(C)C1=O [NIR-ASM],time to fluorescent signal in tumors,[5],≤ 5 min
same,fluorescent signal in tumors,[6],totally negative after 3 hours
O=c1[nH]cc(F)c(=O)[nH]1 [5FU],increase in cytotoxicity in MGMT inactivated cells and xenografts,[7],10-15 fold
"C=C(CC(=C)C(=O)O)C(=O)O [DMG, 2,4-Dimethylene glutaric acid]","effect on TET1, MGMT activities",[8],"curtailed TET1, MGMT activities"
same,potentiation of TMZ,[9],6-8 fold
"CCN1C(=O)C=CC1=O [NEM, N-ethylmaleimide]",BG-PEG-biotin labeling of MGMT in cell extracts after drug,[10],prevented the BG-labeling of the protein
COC1=CC(=O)c2c(c(COc3ccc([N+](=O)[O-])cc3)c(C)n2C)C1=O [ES936],effect on NQO1 activity,[11],completely inhibited the NQO1 activity
COC1=CC(=O)c2c(c(CO)cn2C)C1=O [NQ-IND],effect on NQO1 activity,[11],did not affect the activity of NQO1
same,effect on normal cells,[12],no effect on normal cells
same,cancer cell proliferation,[13],inhibit cancer cell proliferation selectively
same,ROS by DCF-DA fluorescence,[14],generate ROS
O=C1NC2(c3ccccc31)c1ccccc1C1C(=O)c3cccc(O)c3C(=O)C12 (stereo not drawn) [GNQ],sensitization to TMZ,[15],sensitized to TMZ
same,Kp,[16],≤ 0.11
same,ROS generation,[17],generates Reactive oxygen species (ROS)
same,NADH utilized throughout the assay,[18],greater than 1 equiv. of NADH
same,MGMT inhibition,[19],remarkably inhibited
same,effect of NQO1 inhibitors on GNQ cytotoxicity,[20],reversed by coincubation with NQO1 inhibitors ES936 or dicumarol
same,sensitivity to GNQ,[21],not sensitive
same,body weight as a surrogate marker for toxicity,[22],No changes in body weight
same,tumor bioluminescence,[22],complete loss of bioluminescence
